The record followed here is US11459324B2, “O-glycoprotein-2-acetamido-2-deoxy-3-D-glycopyranosidase inhibitors” (BIOGEN MA INC., priority 2018, dated 2022).

Each structure is given as a SMILES string.

This assay addresses T1, Recombinant full length human OGA enzyme (Homo sapiens, UniProt O60502).
T1 construct: Recombinant full length human OGA enzyme was purchased from Origene; purchased Origene
T1 sequence (O60502 1-916): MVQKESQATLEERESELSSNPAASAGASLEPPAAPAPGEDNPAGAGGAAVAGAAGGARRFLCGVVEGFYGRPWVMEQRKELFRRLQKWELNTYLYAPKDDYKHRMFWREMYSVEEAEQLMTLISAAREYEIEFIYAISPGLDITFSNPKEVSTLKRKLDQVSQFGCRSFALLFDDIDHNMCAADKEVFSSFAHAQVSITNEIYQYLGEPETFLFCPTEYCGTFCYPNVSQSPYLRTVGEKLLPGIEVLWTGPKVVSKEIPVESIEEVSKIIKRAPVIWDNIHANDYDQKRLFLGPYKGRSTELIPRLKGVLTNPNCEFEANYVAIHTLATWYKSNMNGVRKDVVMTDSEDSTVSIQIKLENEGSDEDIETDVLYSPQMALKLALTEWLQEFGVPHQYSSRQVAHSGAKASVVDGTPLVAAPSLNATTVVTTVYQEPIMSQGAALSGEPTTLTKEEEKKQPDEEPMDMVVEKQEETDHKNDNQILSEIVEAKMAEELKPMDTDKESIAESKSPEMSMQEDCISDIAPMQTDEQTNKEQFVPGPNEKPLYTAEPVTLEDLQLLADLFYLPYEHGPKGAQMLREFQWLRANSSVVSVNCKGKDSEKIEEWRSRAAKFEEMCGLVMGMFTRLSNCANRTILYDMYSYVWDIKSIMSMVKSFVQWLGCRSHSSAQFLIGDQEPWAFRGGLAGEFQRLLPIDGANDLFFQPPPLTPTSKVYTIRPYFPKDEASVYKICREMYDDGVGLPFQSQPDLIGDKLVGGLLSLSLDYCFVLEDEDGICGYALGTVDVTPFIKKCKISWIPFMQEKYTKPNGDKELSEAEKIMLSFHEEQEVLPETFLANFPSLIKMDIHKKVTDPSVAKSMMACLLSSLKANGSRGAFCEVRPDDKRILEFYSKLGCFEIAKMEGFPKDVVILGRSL
Nature of the assay: OGA Enzyme Inhibition Biochemical Assay. The note with it: 1 nM OGA, 100 μM 4-MUGlcNAc (Km), pH 6.4, 90 minutes at room temperature, 10-point dose-response from 20 μM. The essentials:
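Full-length human OGA at 1 nM with 100 μM 4-MUGlcNAc (Km) in McIlvaine buffer pH 6.4 plus 0.01% BSA, 90 min at room temperature, then glycine pH 10 quench. Fluorescence read at Ex 355/Em 460 nm. 10-point, 4-fold dose-response from 20 μM, 4-parameter variable-slope fit.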
As a reminder, the IC50 is the midpoint of a concentration-inhibition curve. Turning to `CCc1cnn(CC2CCCN(Cc3cnc(NC(C)=O)s3)C2)c1` (stereo not drawn) [Example 4-2, N-(5-((3-((4-ethyl-1H-pyrazol-1-yl)methyl)piperidin-1-yl)methyl)thiazol-2-yl)acetamide], the IC50 amounted to 970 nM.

For `CC(=O)Nc1ncc(CN2CCCC(Cc3cc(F)ccn3)C2)s1` (stereo not drawn) [Example 1-13, N-(5-((3-((4-fluoropyridin-2-yl)methyl)piperidin-1-yl)methyl)thiazol-2-yl)acetamide], the IC50 came out at 142 nM. In the case of `CC(=O)Nc1ncc(CN2CCCC(F)(Cc3ncc(F)cn3)C2)s1` (stereo not drawn) [Example 2-12, N-(5-((3-fluoro-3-((5-fluoropyrimidin-2-yl)methyl)piperidin-1-yl)methyl)thiazol-2-yl)acetamide], the IC50 amounted to 240 nM.

On to `CC(=O)Nc1ncc(CN2C[C@H](Cc3ncc(F)cn3)C[C@@H]2C(F)(F)F)s1` (single isomer, unassigned) [Example 2-47], for which the IC50 amounted to 1200 nM. As for `CC(=O)Nc1ncc(CN2CCC[C@H](Cc3ncccn3)C2)s1` [Example 3-7, (R)-N-(5-((3-(pyrimidin-2-ylmethyl)piperidin-1-yl)methyl)thiazol-2-yl)acetamide], the IC50 was 2 nM. `CC(=O)Nc1ncc(CN2CCC(C(C)c3ncc(F)cn3)C2)s1` (stereo not drawn) [Example 2-36, N-(5-((3-(1-(5-fluoropyrimidin-2-yl)ethyl)pyrrolidin-1-yl)methyl)thiazol-2-yl)acetamide]: the concentration for half-maximal inhibition (IC50) is 1 nM. For the molecule `CC(=O)Nc1nnc(CN2CCC[C@H](Cc3ncc(F)cn3)C2)s1` (stereo in doubt) [Example 3-14, N-(5-((3-((5-fluoropyrimidin-2-yl)methyl)piperidin-1-yl)methyl)-1,3,4-thiadiazol-2-yl)acetamide], the IC50 amounted to 12 nM. `COc1ccc(CC2CCN(Cc3cnc(NC(C)=O)s3)C2)nc1` (stereo not drawn) [Example 1-22, N-(5-((3-((5-methoxypyridin-2-yl)methyl)pyrrolidin-1-yl)methyl)thiazol-2-yl)acetamide]: the IC50 is 100 nM. Turning to `CC(=O)Nc1nc(F)c(CN2CCC(C(C)c3ncc(F)cn3)C2)s1` (stereo not drawn) [Example 2-51, N-(4-fluoro-5-((3-(1-(5-fluoropyrimidin-2-yl)ethyl)pyrrolidin-1-yl)methyl)thiazol-2-yl)acetamide], the IC50 amounted to 1 nM. In the case of `COc1cccc(CC2CCN(Cc3cnc(NC(C)=O)s3)C2)n1` (stereo not drawn) [Example 1-18, N-(5-((3-((6-methoxypyridin-2-yl)methyl)pyrrolidin-1-yl)methyl)thiazol-2-yl)acetamide], the IC50 was 17 nM.

For the molecule `COc1nc(C[C@H]2CCCN(Cc3cnc(NC(C)=O)s3)C2)ncc1F` [Example 2-6, (R)-N-(5-((3-((5-fluoro-4-methoxypyrimidin-2-yl)methyl)piperidin-1-yl)methyl)thiazol-2-yl)acetamide], the IC50 amounted to 8 nM. As to `CC(=O)Nc1nnc(CN2CC[C@H](Cc3cc(C)nc(C)c3)C2)s1` [Example 3-47, (S)—N-(5-((3-((2,6-dimethylpyridin-4-yl)methyl)pyrrolidin-1-yl)methyl)-1,3,4-thiadiazol-2-yl)acetamide], the IC50 came out at 130 nM. In the case of `COc1cccc(CC2CCN(Cc3cnc(NC(C)=O)s3)C2)c1` (stereo not drawn) [Example 1-14, N-(5-((3-(3-methoxybenzyl)pyrrolidin-1-yl)methyl)thiazol-2-yl)acetamide], the 50% inhibitory concentration (IC50) turned out to be 22 nM.

`CC(=O)Nc1ncc(CN2CCC[C@H]([C@@H](C)c3ncc(F)cn3)C2)s1` (single isomer, unassigned) [Example 2-31]: the IC50 stood at 4 nM. On to `CC(=O)Nc1ncc(CN2CC(Cc3ncc(F)cn3)CC[C@H]2C(F)(F)F)s1` (stereo partly drawn) [Example 2-49], for which the IC50 is greater than 20000 nM. For `COc1cc(C[C@H]2CCCN(Cc3sc(NC(C)=O)nc3F)C2)ncn1` [Example 3-22, (R)-N-(4-fluoro-5-((3-((6-methoxypyrimidin-4-yl)methyl)piperidin-1-yl)methyl)thiazol-2-yl)acetamide], the IC50 is less than 1 nM. The figure for `CC(=O)Nc1ncc(CN2CCCC(Cc3cscn3)C2)s1` (stereo not drawn) [Example 1-38, N-(5-((3-(thiazol-4-ylmethyl)piperidin-1-yl)methyl)thiazol-2-yl)acetamide] is 31 nM; for `CC(=O)Nc1ncc(CN2CC[C@H](Cc3ccc(F)c(F)c3)C2)s1` (stereo in doubt) [Example 4-26, N-(5-((3-(3,4-difluorobenzyl)pyrrolidin-1-yl)methyl)thiazol-2-yl)acetamide] it is 56 nM; for `CC(=O)Nc1ncc(CN2C[C@@H](Cc3ncc(F)cn3)[C@H](C)C2)s1` (relative stereo) [Example 2-22, N-(5-(((trans)-3-((5-fluoropyrimidin-2-yl)methyl)-4-methylpyrrolidin-1-yl)methyl)thiazol-2-yl)acetamide] it is 36 nM.

On to `COc1cnc(CC2CCCN(Cc3cnc(NC(C)=O)s3)C2)nc1` (stereo not drawn) [Example 2-4, N-(5-((3-((5-methoxypyrimidin-2-yl)methyl)piperidin-1-yl)methyl)thiazol-2-yl)acetamide], for which the IC50 turned out to be 2 nM.

On to `CC(=O)Nc1ncc([C@H](C)N2CCC[C@H](Cc3ncc(F)cn3)C2)s1` (single isomer, unassigned) [Example 2-11], for which the IC50 came to 1 nM. In the case of `CC(=O)Nc1nc(F)c(CN2CCC[C@H](Cc3cc(C)nc(C)c3)C2)s1` [Example 3-25, (R)-N-(5-((3-((2,6-dimethylpyridin-4-yl)methyl)piperidin-1-yl)methyl)-4-fluorothiazol-2-yl)acetamide], the IC50 was less than 1 nM. Regarding `CC(=O)Nc1nc(F)c(CN2C[C@H](Cc3noc(C)n3)C[C@@H]2C)s1` (single isomer, unassigned) [Example 4-12 Peak 2], the IC50 is less than 1 nM. For `COc1cc(C[C@H]2C[C@H](C)N(Cc3sc(NC(C)=O)nc3F)C2)ncn1` [Example 3-46, N-(4-fluoro-5-(((2S,4R)-4-((6-methoxypyrimidin-4-yl)methyl)-2-methylpyrrolidin-1-yl)methyl)thiazol-2-yl)acetamide], the IC50 was less than 1 nM.

Take `CC(=O)Nc1ncc(CN2CC[C@H](Cc3ncc(C)cn3)C2)s1` [Example 3-13, (R)-N-(5-((3-((5-methylpyrimidin-2-yl)methyl)pyrrolidin-1-yl)methyl)thiazol-2-yl)acetamide]: the IC50 turned out to be 14 nM. The figure for `CC(=O)Nc1ncc(CN2CCC(Cc3ccc(F)cc3)C2)s1` (stereo not drawn) [Example 1-17, N-(5-((3-(4-fluorobenzyl)pyrrolidin-1-yl)methyl)thiazol-2-yl)acetamide] is 180 nM. `CC(=O)Nc1ncc(CN2CC(Cc3noc(C)n3)CC[C@@H]2C)s1` (stereo partly drawn) [Example 4-17, N-(5-(((2S)-2-methyl-5-((5-methyl-1,2,4-oxadiazol-3-yl)methyl)piperidin-1-yl)methyl)thiazol-2-yl)acetamide]: the IC50 is less than 1 nM. The same measure for `COc1ccc(CC2CCN(Cc3cnc(NC(C)=O)s3)C2)cn1` (stereo not drawn) [Example 1-23, N-(5-((3-((6-methoxypyridin-3-yl)methyl)pyrrolidin-1-yl)methyl)thiazol-2-yl)acetamide]: 17 nM; for `CC(=O)Nc1ncc(CN2C[C@H](Cc3ncc(F)cn3)C[C@@H]2C)s1` (single isomer, unassigned) [Example 2-18]: 358 nM; for `COc1cc(C[C@H]2CCCN(Cc3cnc(NC(C)=O)s3)C2)ncn1` [Example 3-23, (R)-N-(5-((3-((6-methoxypyrimidin-4-yl)methyl)piperidin-1-yl)methyl)thiazol-2-yl)acetamide]: 1.3 nM.
